Our source for the MIC values is DBAASP.

Converted amounts (≈) assume the structure as drawn. Bounds are passed on as bounds.

Among the test systems are Escherichia coli BL21; Escherichia coli UB1005; Salmonella sp.; Yersinia enterocolitica; Escherichia coli; Pseudomonas aeruginosa 9.
Common to all, as to test: ≥ marks a high value that may be exact or a test limit, other limits are often not marked, values filed in µg/mL are converted to µM
Experiment [1] deals with Streptococcus pyogenes M1T1 5448.
Experiment [2] has as its system Pseudomonas aeruginosa PAO1.
Experiment [3] relates to Pseudomonas aeruginosa H744.
The subject of experiment [4] is Pseudomonas aeruginosa Z61.
Experiment [5] concerns Salmonella enterica subsp. enterica serovar Typhimurium ATCC 14028s.
The test system of experiment [6] is Pseudomonas aeruginosa H547.
For experiment [7], the system named is Pseudomonas aeruginosa K799.
The subject of experiment [8] is Staphylococcus aureus ATCC 29213.
Experiment [9] has as its system Pseudomonas aeruginosa ATCC 27853.
The subject of experiment [10] is Staphylococcus aureus ATCC 43300.
The subject of experiment [11] is Salmonella enterica subsp. enterica serovar Enteritidis.
Experiment [12] has as its system Escherichia coli ATCC 25922.
Experiment [13] relates to Escherichia coli ESBL 63103.
Experiment [14] relates to Pseudomonas aeruginosa 213.
Experiment [15] has as its system Staphylococcus aureus ATCC 25923.
Experiment [16] concerns Klebsiella pneumoniae ESBL 61962.
Experiment [17] deals with Pseudomonas aeruginosa 198.
Experiment [18] has as its system Enterobacter cloacae 218R.
Experiment [19] concerns Enterococcus faecalis W61950.
For experiment [20], the system named is Staphylococcus aureus C623.
Experiment [21] concerns Enterococcus faecalis f43559.
For experiment [22], the system named is Pseudomonas aeruginosa PAO1 H103.
The test system of experiment [23] is Escherichia coli ESBL 64771.
Experiment [24] has as its system Enterococcus faecium t62764.
Experiment [25] has as its system Pseudomonas aeruginosa H1027.
In experiment [26] the test system is Klebsiella pneumoniae ESBL 63575.
For experiment [27], the system named is Stenotrophomonas maltophilia ATCC 13637.
Experiment [28] has as its system Enterococcus faecium mic80.
Experiment [29] has as its system Pseudomonas aeruginosa LES400.
Experiment [30] concerns Pseudomonas aeruginosa H1030.
Experiment [31] relates to Enterococcus faecalis ATCC 29212.
The test system of experiment [32] is Candida albicans ATCC 10231.
The subject of experiment [33] is Cryptococcus neoformans ATCC 32264.
Experiment [34] deals with Staphylococcus aureus USA 300.

For the molecule `CC[C@H](C)[C@H](NC(=O)[C@H](CCCN=C(N)N)NC(=O)CNC(=O)[C@@H](NC(=O)[C@H](CCCCN)NC(=O)[C@H](CCCN=C(N)N)NC(=O)[C@@H](NC(=O)[C@H](Cc1ccc(O)cc1)NC(=O)[C@H](CCCN=C(N)N)NC(=O)[C@H](CCCN=C(N)N)NC(=O)[C@H](CC(C)C)NC(=O)[C@H](CCC(=O)O)NC(=O)[C@H](CCCCN)NC(=O)[C@H](C)NC(=O)[C@@H](NC(=O)[C@H](CCCN=C(N)N)NC(=O)[C@H](CC(N)=O)NC(=O)[C@@H](NC(=O)CNC(=O)[C@H](C)N)[C@@H](C)O)[C@@H](C)CC)[C@@H](C)CC)C(C)C)C(=O)N[C@@H](C)C(=O)N[C@@H](CCCN=C(N)N)C(=O)N[C@@H](CCCCN)C(=O)N[C@@H](CCCCN)C(=O)N[C@@H](Cc1c[nH]c2ccccc12)C(=O)O` [AGTNRIAKELRRYIRKVGRIARKKW], the minimal inhibitory concentration (MIC) (usually the lowest concentration that inhibits growth of the organism) in experiment [1] was found to be 1 µM (≈ 3.04 µg/mL); against Escherichia coli BL21 it was 1 µM (≈ 3.04 µg/mL); in [2] it was 16 µM (≈ 48.7 µg/mL).

`CC(C)C[C@H](NC(=O)[C@H](C)NC(=O)[C@H](CC(N)=O)NC(=O)[C@@H]1CCCN1C(=O)CNC(=O)[C@H](CO)NC(=O)[C@H](CC(N)=O)NC(=O)[C@@H](NC(=O)[C@H](C)NC(=O)[C@H](CCCCN)NC(=O)[C@H](CCC(N)=O)NC(=O)[C@H](C)NC(=O)[C@H](CCCCN)NC(=O)[C@H](Cc1c[nH]c2ccccc12)NC(=O)[C@H](Cc1c[nH]c2ccccc12)NC(=O)[C@H](CCCCN)NC(=O)[C@@H](N)CCCCN)C(C)C)C(=O)N[C@@H](CCC(N)=O)C(=O)N[C@H](C(=O)N[C@@H](CC(C)C)C(=O)N[C@@H](C)C(=O)N[C@@H](CCC(N)=O)C(=O)O)[C@@H](C)O` [KKWWKAQKAVNSGPNALQTLAQ]: the MIC (in experiment [3]; against Escherichia coli UB1005; in [4]; in experiment [5]; in experiment [6]; in experiment [7]) was 25.9 µM (≈ 64 µg/mL) each time.

In the case of `CC[C@H](C)[C@H](NC(=O)[C@H](CCC(N)=O)NC(=O)[C@@H](N)CCCN=C(N)N)C(=O)N[C@@H](CCCN=C(N)N)C(=O)N[C@@H](Cc1c[nH]c2ccccc12)C(N)=O` [RQIRW], the MIC in experiment [8] was over 50 µM; in [9] it was over 50 µM; in the experiment on Salmonella sp., at least 50 µM; in experiment [10], over 50 µM; in experiment [11], at least 50 µM; in the experiment with Yersinia enterocolitica, at least 50 µM. Further, the MIC (in the experiment with Escherichia coli; in experiment [12]) was over 50 µM each time.

As to `CC(C)C[C@H](NC(=O)[C@H](Cc1c[nH]c2ccccc12)NC(=O)[C@H](Cc1c[nH]c2ccccc12)NC(=O)[C@H](CCCCN)NC(=O)[C@H](Cc1c[nH]c2ccccc12)NC(=O)[C@H](CCCN=C(N)N)NC(=O)[C@H](CCCN=C(N)N)NC(=O)[C@H](Cc1c[nH]c2ccccc12)NC(=O)[C@@H](N)CCCN=C(N)N)C(=O)O` [RWRRWKWWL], the MIC turned out to be 2.65 µM (≈ 3.9 µg/mL) in experiment [13]; 10.9 µM (≈ 16 µg/mL) in experiment [14]; 1.36 µM (≈ 2 µg/mL) in experiment [15]; 21 µM (≈ 31 µg/mL) in [16]; 5.5 µM (≈ 8.1 µg/mL) in [17]; 2.65 µM (≈ 3.9 µg/mL) in experiment [18]. The MIC was at least 42.1 µM in experiment [19]; 1.36 µM (≈ 2 µg/mL) in experiment [20]; at least 42.1 µM in experiment [21]; 1.36 µM (≈ 2 µg/mL) in [22]; 1.36 µM (≈ 2 µg/mL) in experiment [23]; 0.611 µM (≈ 0.9 µg/mL) in experiment [24]. In addition, the MIC was found to be 0.136 µM (≈ 0.2 µg/mL) in experiment [25]; 5.02 µM (≈ 7.4 µg/mL) in experiment [26]; 0.34 µM (≈ 0.5 µg/mL) in experiment [27]; 2.65 µM (≈ 3.9 µg/mL) in experiment [28]; 2.65 µM (≈ 3.9 µg/mL) in [29]; 5.5 µM (≈ 8.1 µg/mL) in experiment [30]. Further, the MIC worked out at 10.9 µM (≈ 16 µg/mL) in experiment [31] and 5.5 µM (≈ 8.1 µg/mL) with Pseudomonas aeruginosa 9.

On to `N=C(N)NCCC[C@H](NC(=O)[C@H](CCCNC(=N)N)NC(=O)[C@H](Cc1c[nH]c2ccccc12)NC(=O)[C@H](Cc1c[nH]c2ccccc12)NC(=O)[C@H](Cc1c[nH]c2ccccc12)NC(=O)[C@H](Cc1c[nH]c2ccccc12)NC(=O)[C@H](Cc1c[nH]c2ccccc12)NC(=O)[C@H](CCCCN)NC(=O)[C@H](Cc1c[nH]c2ccccc12)NC(=O)[C@H](Cc1c[nH]c2ccccc12)NC(=O)[C@@H](N)CCCNC(=N)N)C(=O)N[C@@H](Cc1c[nH]c2ccccc12)C(=O)N[C@@H](CCCCN)C(=O)N[C@@H](Cc1c[nH]c2ccccc12)C(=O)N[C@@H](CCCCN)C(=O)N[C@@H](CCCCN)C(N)=O` [RWWKWWWWWRRWKWKK], for which the MIC in experiment [8] is over 50 µM; in experiment [9], over 50 µM; in the experiment on Salmonella sp., at least 50 µM; in experiment [10] it was over 50 µM; in [11] it was 25 µM (≈ 66.9 µg/mL); against Yersinia enterocolitica, at least 50 µM. Besides, the MIC in the experiment with Escherichia coli is over 50 µM; in experiment [32] it was 100 µM (≈ 267 µg/mL); in experiment [33], at least 200 µM; in [12] it was over 50 µM.

Regarding `CC[C@H](C)[C@H](NC(=O)[C@H](Cc1ccccc1)NC(=O)[C@H](C)NC(=O)[C@H](CCCCN)NC(=O)[C@H](CCCCN)NC(=O)CNC(=O)[C@H](CCCN=C(N)N)NC(=O)[C@H](CCCCN)NC(=O)[C@H](CCCN=C(N)N)NC(=O)[C@H](CC(C)C)NC(=O)[C@H](CCC(=O)O)NC(=O)[C@H](CCC(=O)O)NC(=O)[C@H](CC(C)C)NC(=O)[C@H](CC(C)C)NC(=O)[C@H](Cc1ccc(O)cc1)NC(=O)[C@H](CCCCN)NC(=O)[C@@H](NC(=O)[C@H](CC(C)C)NC(=O)[C@H](C)NC(=O)[C@H](CCC(N)=O)NC(=O)[C@H](CCCN=C(N)N)NC(=O)CNC(=O)[C@@H](N)Cc1c[nH]c2ccccc12)[C@@H](C)O)C(=O)N[C@@H](C)C(=O)N[C@@H](Cc1c[nH]c2ccccc12)C(=O)O` [WGRQALTKYLLEELRKRGKKAFIAW], the minimum inhibitory concentration (MIC) in [34] is at least 128 µM; in [1] it was 2 µM (≈ 6.13 µg/mL); with Escherichia coli BL21 it was 16 µM (≈ 49 µg/mL); in experiment [2], 64 µM (≈ 196 µg/mL).
